Data: patent US10532054B2, “Compounds for the prevention and treatment of cardiovascular diseases” (Resverlogix Corp., priority 2007, dated 2020)
Where a name gives a salt, the structure may show the parent alone.

| SMILES | melting point |
| --- | --- |
| Cc1cc(-c2cc3ncccc3c(=O)[nH]2)cc(C)c1O (as salt: HCl) [Example 8, 7-(4-hydroxy-3,5-dimethylphenyl)-1,6-naphthyridin-5(6H)-one] | > 350 °C |
| COc1cc(OC)c2c(=O)[nH]c(-c3cc(C)c(O)c(C)c3)cc2n1 (as salt: HCl) [Example 16, 7-(4-hydroxy-3,5-dimethylphenyl)-2,4-dimethoxy-1,6-naphthyridin-5(6H)-one] | > 324 °C |
| COc1cc(OC)c2cnc(-c3cc(C)c(OCCN4CCOCC4)c(C)c3)cc2c1 (as salt: HCl) [Example 22, 4-(2-(4-(6,8-dimethoxyisoquinolin-3-yl)-2,6-dimethylphenoxy)ethyl)morpholine] | 239 to 240 °C |
| COc1cc(OC)c2c(=O)[nH]c(-c3cc(C)c(OCCN(C)C)c(C)c3)cc2c1 (as salt: hydrochloride) [Example 10, 3-(4-(2-(dimethylamino)ethoxy)-3,5-dimethylphenyl)-6,8-dimethoxyisoquinolin-1(2H)-one] | 261 to 263 °C |
| Cc1cc(-c2cc3ccc(CN4CCOCC4)cc3c(=O)[nH]2)cc(C)c1O (as salt: hydrochloride) [Example 11, 3-(4-hydroxy-3,5-dimethylphenyl)-7-(morpholinomethyl)isoquinolin-1(2H)-one] | 281 to 283 °C |
| COc1cc(O)nc2cc(-c3cc(C)c(O)c(C)c3)[nH]c(=O)c12 (as salt: hydrochloride) [Example 12, 2-hydroxy-7-(4-hydroxy-3,5-dimethylphenyl)-4-methoxy-1,6-naphthyridin-5(6H)-one] | > 330 °C |
| COc1cc(OC)c2cnc(-c3cc(C)c(O)c(C)c3)cc2c1 (as salt: hydrochloride) [Example 18, 4-(6,8-dimethoxyisoquinolin-3-yl)-2,6-dimethylphenol] | 255 to 256 °C |
| COc1cc(OC)c2c(=O)[nH]c(-c3cc(C)c(OCCN4CCOCC4)c(C)c3)nc2c1 (as salt: hydrochloride) [Example 21, 2-(3,5-dimethyl-4-(2-morpholinoethoxy)phenyl)-5,7-dimethoxyquinazolin-4(3H)-one] | 185 to 187 °C |
| COc1cc(OC)c2c(=O)[nH]c(-c3cc(C)c(OCCN4CCN(C)CC4)c(C)c3)cc2c1 (as salt: hydrochloride) [Example 23] | 195 to 198 °C |
| COc1cc(OC)c2c(=O)[nH]c(-c3ccccn3)nc2c1 (as salt: hydrochloride) [Example 26, 5,7-dimethoxy-2-(pyridin-2-yl)quinazolin-4(3H)-one] | 215 to 217 °C |
| COc1cc(OC)c2c(=O)[nH]c(-c3cccnc3)nc2c1 (as salt: hydrochloride) [Example 27, 5,7-dimethoxy-2-(pyridin-3-yl)quinazolin-4(3H)-one] | 257 to 259 °C |
| COc1cc(OC)c2c(=O)[nH]c(-c3ccncc3)nc2c1 (as salt: hydrochloride) [Example 33, 5,7-dimethoxy-2-(pyridin-4-yl)quinazolin-4(3H)-one] | 294 to 295 °C |
| Cc1cc(-c2nc3ccccc3c(=O)[nH]2)cc(C)c1OCCN1CCOCC1 (as salt: hydrochloride) [Example 34, 2-(3,5-dimethyl-4-(2-morpholinoethoxy)phenyl)quinazolin-4(3H)-one] | 300 to 302 °C |
| O=c1[nH]c(-c2ccc(O)cc2)cc2ccccc12 [Example 1, 3-(4-Hydroxyphenyl)-2H-isoquinolin-1-one] | 239 to 241 °C |
| Oc1ccc(-c2cc3ccccc3cn2)cc1 [Example 2, 4-lsoquinolin-3-yl-phenol] | 218 to 219 °C |
| Oc1ccc(-c2cc3ncccc3cn2)cc1 [Example 5, 4-(1,6-naphthyridin-7-yl)phenol] | 219 to 221 °C |
| COc1cc(OC)c2c(=O)[nH]c(-c3ccc(O)cc3)cc2c1 [Example 6, 3-(4-hvdroxyphenyl)-6,8-dimethoxyisoquinolin-1(2H)-one] | 245 to 247 °C |
| COc1cc(OC)c2c(=O)n(C)c(-c3cc(C)c(O)c(C)c3)cc2c1 [Example 7, 3-(4-hydroxy-3,5-dimethylphenyl)-6,8-dimethoxy-2-methylisoquinolin-1(2H)-one] | 253 to 254 °C |
| COc1cc(OC)c2c(=O)[nH]c(-c3cc(C)c(OCC(C)(C)O)c(C)c3)cc2c1 [Example 14, 3-(4-(2-hydroxy-2-methylpropoxy)-3,5-dimethylphenyl)-6,8-dimethoxyisoquinolin-1(2H)-one] | 252 to 254 °C |
| COc1cc2c(c(OC)c1)S(=O)(=O)NC(c1cc(C)c(O)c(C)c1)=C2 [Example 15, 6,8-dimethoxy-3-(4-hydroxy-3,5-dimethylphenyl)-2H-1,2-benzothiazine-1,1-dioxide] | 246.6 to 247.4 °C |
| COc1cc2cc(-c3cc(C)c(O)c(C)c3)n(C)c(=O)c2c(OC)c1C [Example 17, 3-(4-hydroxy-3,5-dimethylphenyl)-6,8-dimethoxy-2,7-dimethylisoquinolin-1(2H)-one] | 246 to 248 °C |
| COc1cc(OC)c2c(=O)[nH]c(-c3cc(C(C)(C)C)c(O)c(C(C)(C)C)c3)nc2c1 [Example 28, 2-(3,5-di-tert-butyl-4-hydroxyphenyl)-5,7-dimethoxyquinazolin-4(3H)-one] | 229.7 to 230.5 °C |
| COc1cc(OC)cc(-c2nc3cc(OC)cc(OC)c3c(=O)[nH]2)c1 [Example 29, 2-(3,5-dimethoxyphenyl)-5,7-dimethoxyquinazolin-4(3H)-one] | 270 to 272 °C |
| COc1ccc(-c2nc3cc(OC)cc(OC)c3c(=O)[nH]2)cc1 [Example 30, 5,7-dimethoxy-2-(4-methoxyphenyl)quinazolin-4(3H)-one] | 276 to 277 °C |
| COc1cc(OC)c2c(=O)[nH]c(-c3ccc(O)c(OC)c3)nc2c1 [Example 31, 2-(4-hydroxy-3-methoxyphenyl)-5,7-dimethoxyquinazolin-4(3H)-one] | 294 to 296 °C |
| COc1cc(OC)c2c(=O)[nH]c(-c3ccc(O)c(Cl)c3)nc2c1 [Example 32, 2-(3-chloro-4-hydroxyphenyl)-5,7-dimethoxyquinazolin-4(3H)-one] | 279 to 281 °C |
| Cc1cc(-c2nc3ccccc3c(=O)[nH]2)cc(C)c1OCCO [Example 35, 2-(4-(2-hydroxyethoxy)-3,5-dimethylphenyl)quinazolin-4(3H)-one] | 260 to 261 °C |

Further lines, results first:

| melting point | SMILES |
| --- | --- |
| 275 to 277 °C | COc1cc(OC)c2c(=O)[nH]c(-c3ccc(CN4CCN(C)CC4)cc3)nc2c1 (as salt: hydrochloride) [Example 59, 5,7-dimethoxy-2-(4((4-methylpiperazin-1-yl)methyl)phenyl)quinazolin-4(3H)-one] |
| 284 to 286 °C | Cc1cc(-c2nc3ccc(CN4CCOCC4)cc3c(=O)[nH]2)cc(C)c1O (as salt: hydrochloride) [Example 62, 2-(4-hydroxy-3,5-dimethylphenyl)-6-(morpholinomethyl)quinazolin-4(3H)-one] |
| 206 to 208 °C (dec.) | COc1cc(OC)c2c(=O)[nH]c(-c3ccc(CN4CCOCC4)cc3)nc2c1 (as salt: hydrochloride) [Example 66, 5,7-dimethoxy-2-(4-(morpholinomethyl)phenyl)quinazolin-4(3H)-one] |
| 278 to 280 °C (dec.) | CCN1CCN(Cc2ccc(-c3nc4cc(OC)cc(OC)c4c(=O)[nH]3)cc2)CC1 (as salt: hydrochloride) [Example 67, 2-(4((4-ethylpiperazin-1-yl)methyl)phenyl)-5,7-dimethoxyquinazolin-4(3H)-one] |
| 267 to 268 °C (dec.) | O=c1[nH]c(-c2ccc3c(c2)OCCO3)nc2ccccc12 [Example 36, 2-(2,3-dihydrobenzo[b][1,4]dioxin-6-yl)quinazolin-4(3H)-one] |
| 269 to 271 °C | COc1cc(OC)c2c(=O)[nH]c(-c3ccc(N(C)C)c4ccccc34)nc2c1 [Example 37, 2-(4-(dimethylamino)naphthalen-1-yl)-5,7-dimethoxyquinazolin-4(3H)-one] |
| 309 to 311 °C | COc1cc(OC)c2c(=O)[nH]c(-c3ccc(OCC(N)=O)cc3)nc2c1 [Example 38, 2-(4-(5,7-dimethoxy-4-oxo-3,4-dihydroquinazolin-2-yl)phenoxy)acetamide] |
| 285 to 287 °C | O=C(O)COc1ccc(-c2nc3ccccc3c(=O)[nH]2)cc1 [Example 39, 2-(4-(4-oxo-3,4-dihydroquinazolin-2-yl)phenoxy)acetic acid] |
| 224 to 226 °C | CN(C)c1ccc(-c2nc3ccccc3c(=O)[nH]2)c2ccccc12 [Example 40, 2-(4-(dimethylamino)naphthalen-1-yl)quinazolin-4(3H)-one] |
| 277.5 to 278.5 °C | NC(=O)COc1ccc(-c2nc3ccccc3c(=O)[nH]2)cc1 [Example 41, 2-(4-(4-oxo-3,4-dihydroquinazolin-2-yl)phenoxy)acetamide] |
| 307.5 to 309.6 °C | COc1cc(OC)c2c(=O)[nH]c(-c3ccc4c(c3)OCCO4)nc2c1 [Example 42, 2-(2,3-dihydrobenzo[b][1,4]dioxin-6-yl)-5,7-dimethoxyquinazolin-4(3H)-one] |
| 235.5 to 236.5 °C | COc1cc2nc(-c3ccc(N(C)C)c4ccccc34)[nH]c(=O)c2cc1OC [Example 44] |
| 228 to 230 °C | O=c1[nH]c(-c2ccc(N(CCO)CCO)cc2)nc2ccccc12 [Example 45, 2-(4-(bis(2-hydroxyethyl)amino)phenyl)quinazolin-4(3H)-one] |
| 249 to 251 °C | COc1cc(OC)c2c(=O)[nH]c(-c3ccc(N(CCO)CCO)cc3)nc2c1 [Example 46, 2-(4-(bis(2-hydroxyethyl)amino)phenyl)-5,7-dimethoxyquinazolin-4(3H)-one] |
| 268 to 270 °C | COc1cc2nc(-c3ccc(N(CCO)CCO)cc3)[nH]c(=O)c2cc1OC [Example 47, 2-(4-(bis(2-hydroxyethyl)amino)phenyl)-6,7-dimethoxyquinazolin-4(3H)-one] |
| 316.4 to 318.2 °C | COc1cc2nc(-c3ccc4c(c3)OCCO4)[nH]c(=O)c2cc1OC [Example 48, 2-(2,3-dihydrobenzo[b][1,4]dioxin-6-yl)-6,7-dimethoxyquinazolin-4(3H)-one] |
